Laboratory results reported in US20210177814A1, “USE OF GUANABENZ OR DERIVATES THEREOF FOR THE TREATMENT OF TYPE I IFN-DEPENDENT PATHOLOGIES” (INSERM (Institut National de la Santé et de la Recherche …, priority 2018, published 2021).

Biological target: T1, TLR9 (Homo sapiens, UniProt Q9NR96)
T1 sequence (Q9NR96 26-1032): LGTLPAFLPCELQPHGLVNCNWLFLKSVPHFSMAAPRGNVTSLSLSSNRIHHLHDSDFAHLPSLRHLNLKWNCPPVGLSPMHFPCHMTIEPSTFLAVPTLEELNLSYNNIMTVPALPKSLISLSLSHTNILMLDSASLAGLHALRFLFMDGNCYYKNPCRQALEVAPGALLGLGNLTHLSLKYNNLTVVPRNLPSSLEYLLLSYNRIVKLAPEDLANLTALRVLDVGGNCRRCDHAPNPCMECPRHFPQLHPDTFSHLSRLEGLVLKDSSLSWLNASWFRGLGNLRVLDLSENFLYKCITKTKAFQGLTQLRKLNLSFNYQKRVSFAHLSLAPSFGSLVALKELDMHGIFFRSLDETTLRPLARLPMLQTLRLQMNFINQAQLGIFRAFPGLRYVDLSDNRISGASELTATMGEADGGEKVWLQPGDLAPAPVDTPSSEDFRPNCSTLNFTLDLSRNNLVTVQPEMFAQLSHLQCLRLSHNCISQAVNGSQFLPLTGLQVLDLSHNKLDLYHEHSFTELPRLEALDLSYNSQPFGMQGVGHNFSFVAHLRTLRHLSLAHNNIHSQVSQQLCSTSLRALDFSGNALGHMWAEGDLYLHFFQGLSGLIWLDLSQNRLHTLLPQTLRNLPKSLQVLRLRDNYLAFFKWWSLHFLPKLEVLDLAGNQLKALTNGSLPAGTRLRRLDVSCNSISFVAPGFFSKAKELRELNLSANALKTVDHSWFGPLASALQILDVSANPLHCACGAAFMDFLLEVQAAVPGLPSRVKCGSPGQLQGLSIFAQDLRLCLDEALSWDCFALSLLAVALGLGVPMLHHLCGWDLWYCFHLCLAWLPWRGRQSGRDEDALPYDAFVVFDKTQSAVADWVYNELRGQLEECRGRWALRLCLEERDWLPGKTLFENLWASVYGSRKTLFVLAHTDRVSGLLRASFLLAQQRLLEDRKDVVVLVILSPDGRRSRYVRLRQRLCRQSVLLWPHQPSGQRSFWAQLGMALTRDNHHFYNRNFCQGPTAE
Assay: Cytokine secretion by human primary blood pDCs activated with CpG ODN 2216 or lupus patient serum
Assay type: cell-based
Parameters: endogenous in cells; host or cells: human primary blood pDCs
Conditions: 3 μM CpG ODN 2216 or 2% lupus serum, GBZ 50 μM
Description: FIG. 1: Guanabenz inhibits TLR3 and TLR9 activation in mouse Flt3-L DCs and human blood pDCs. A) Sorted bone marrow derived Flt3L-DCs were activated for 6 h with 10 μg/mL poly I:C LMW (TLR3 in DC1) or 1 μM ODN 1585 (TLR9 in pDCs). GBZ was added at 50 μM and inhibited IFN-β and Interleukin-6 (IL-6) production in activated cells. B) hTLR4, hTLR3, hTLR9 and hTLR7 expressed in the reporter HEK-Blue™ cells are inhibited by GBZ. TLR-expressing HEK-Blue™ cells were respectively activated with 100 ng/mL LPS, 10 μg/mL poly I:C LMW, 2.5 μM ODN 2006 or 5 μg/mL imiquimod, respectively. GBZ was added at 50 μM. TLR activity was measured indirectly through SEAP activity as absorbance at 405 nm. […] Protein concentration of IFN-α and TNF-α secreted were measured at the indicated time points or at 16 h. […]
Mouse IFN-β quantification in culture supernatant was performed using the Mouse Interferon Beta ELISA kit (PBL InterferonSource); mouse IL-6, TNFα, IL-10, human TNFα and human IFNα were quantified using ELISA kit (eBioscience) respectively, according to manufacturer instructions.
Given the efficiency of GBZ on mouse TLR3 and TLR9, we turned to human TLRs, in order to extend the relevance of our observations. GBZ-mediated inhibition was first evaluated on NF-kB signaling by monitoring secreted alkaline phosphatase (SEAP) reporter levels in HEK-293 cells expressing TLR3, TLR4, TLR7, TLR9 (FIG. 1B). […]

For `NC(N)=N/N=C/c1c(Cl)cccc1Cl` [GBZ, 2-(2,6-dichlorobenzylidene)-hydrazinecarboximidamide], the “production of TNF-α” value was “prevented” and the “production of type-I IFN (IFN-α)” value was “prevented”.
